Assays:
HOP-92 = assay: NCI-60 5-dose screen; format: cell-based, human
A498 = assay: NCI-60 5-dose screen; format: cell-based, human
NCI-H226 = assay: NCI-60 5-dose screen; format: cell-based, human
HT29 = assay: NCI-60 5-dose screen; format: cell-based, human
PC-3 = assay: NCI-60 5-dose screen; format: cell-based, human
SF-268 [1] = assay: NCI-60 5-dose screen; format: cell-based, human
M14 = assay: NCI-60 single-dose screen; format: cell-based; settings: Homo sapiens; M14, 10^–5 M; read-out: GI (%)
Summary of the method: (§1)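 The National Cancer Institute screened these compounds at a fixed 10^−5 M in its sixty-line human tumor cell panel.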

NCI-H460 = assay: NCI-60 single-dose screen; format: cell-based; settings: Homo sapiens; NCI-H460, 10^–5 M; read-out: GI (%)
Summary of the method: as §1

RPMI-8226 [2] = assay: NCI-60 single-dose screen; format: cell-based; settings: Homo sapiens; RPMI-8226, 10^–5 M; read-out: GI (%)
Summary of the method: as §1

HT-29 = assay: NCI-60 single-dose screen; format: cell-based; settings: Homo sapiens; HT-29, 10^–5 M; read-out: GI (%)
Summary of the method: as §1

SF-268 [3] = assay: NCI-60 single-dose screen; format: cell-based; settings: Homo sapiens; SF-268, 10^–5 M; read-out: GI (%)
Summary of the method: as §1

ACHN = assay: NCI-60 single-dose screen; format: cell-based; settings: Homo sapiens, 10^–5 M, read-out: GI (%)
Summary of the method: as §1

HS 578T = assay: NCI-60 single-dose screen; format: cell-based; settings: Homo sapiens, 10^–5 M, read-out: GI (%)
Summary of the method: as §1

OVCAR-4 [4] = assay: NCI-60 single-dose screen; format: cell-based; settings: Homo sapiens; OVCAR-4, 10^–5 M; read-out: GI (%)
Summary of the method: as §1

MOLT-4 [5] = assay: NCI-60 single-dose screen; format: cell-based; settings: Homo sapiens; MOLT-4, 10^–5 M; read-out: GI (%)
Summary of the method: as §1

MALME-3M = assay: NCI-60 single-dose screen; format: cell-based; settings: Homo sapiens, 10^–5 M, read-out: GI (%)
Summary of the method: as §1

MDA-MB-435 = assay: NCI-60 single-dose screen; format: cell-based; settings: Homo sapiens; MDA-MB-435, 10^–5 M; read-out: GI (%)
Summary of the method: as §1

SR = assay: NCI-60 single-dose screen; format: cell-based; settings: Homo sapiens, 10^–5 M, read-out: GI (%)
Summary of the method: as §1

TK-10 = assay: NCI-60 single-dose screen; format: cell-based; settings: Homo sapiens; TK-10, 10^–5 M; read-out: GI (%)
Summary of the method: as §1

NCI-H522 = assay: NCI-60 single-dose screen; format: cell-based; settings: Homo sapiens; NCI-H522, 10^–5 M; read-out: GI (%)
Summary of the method: as §1

T-47D = assay: NCI-60 single-dose screen; format: cell-based; settings: Homo sapiens, T47D, 10^–5 M, read-out: GI (%)
Summary of the method: as §1

DU-145 = assay: NCI-60 single-dose screen; format: cell-based; settings: Homo sapiens; DU-145, 10^–5 M; read-out: GI (%)
Summary of the method: as §1

RXF 393 = assay: NCI-60 5-dose screen; format: cell-based, human
SW-620 = assay: NCI-60 5-dose screen; format: cell-based, human
MOLT-4 [6] = assay: NCI-60 5-dose screen; format: cell-based, human
MDA-MB-231/ATCC = assay: NCI-60 5-dose screen; format: cell-based, human
RPMI-8226 [7] = assay: NCI-60 5-dose screen; format: cell-based, human
U251 [8] = assay: NCI-60 5-dose screen; format: cell-based, human
IGROV1 = assay: NCI-60 5-dose screen; format: cell-based, human
OVCAR-4 [9] = assay: NCI-60 5-dose screen; format: cell-based, human
HOP-62 = assay: NCI-60 single-dose screen; format: cell-based, human; settings: HOP-62, 10^–5 M
Summary of the method: as §1

U251 [10] = assay: NCI-60 single-dose screen; format: cell-based, human; settings: U251, 10^–5 M
Summary of the method: as §1

MDA-MB-468 = assay: NCI-60 single-dose screen; format: cell-based, human; settings: MDA-MB-468, 10^–5 M
Summary of the method: as §1

UO-31 = assay: NCI-60 single-dose screen; format: cell-based, human; settings: UO-31, 10^–5 M
Summary of the method: as §1

SF-295 = assay: NCI-60 single-dose screen; format: cell-based, human; settings: SF-295, 10^–5 M
Summary of the method: as §1

BT-549 = assay: NCI-60 single-dose screen; format: cell-based, human; settings: BT-549, 10^–5 M
Summary of the method: as §1

[11] = Homo sapiens, read-out: LC50 (the source's name)

SMILES: O=C1C(Nc2ccc(I)cc2)=CC(c2ccc(C(F)(F)F)cc2)N1c1ccc(I)cc1 (stereo not shown) [3e]
- TGI (HOP-92): 7.22 µM
- GI50 (HOP-92; Homo sapiens): 3.15 µM
- CC50 (HOP-92; [11]): > 100 µM
- TGI (A498): 3.56 µM
- GI50 (A498; Homo sapiens): 1.95 µM
- CC50 (A498; [11]): 6.5 µM
- TGI (NCI-H226): >100 µM
- GI50 (NCI-H226; Homo sapiens): 8.48 µM
- CC50 (NCI-H226; [11]): > 100 µM
- TGI (HT29): >100 µM
- GI50 (HT29; Homo sapiens, HT-29): > 100 µM
- CC50 (HT29; Homo sapiens, HT-29, read-out: LC50 (the source's name)): > 100 µM
- TGI (PC-3): >100 µM
- GI50 (PC-3; Homo sapiens): 9.99 µM
- CC50 (PC-3; [11]): > 100 µM
- TGI (SF-268 [1]): >100 µM
- GI50 (SF-268 [1]; Homo sapiens): 4.66 µM
- CC50 (SF-268 [1]; [11]): > 100 µM
- inhibition at 10 µM (M14): 64%
- inhibition at 10 µM (NCI-H460): 43%
- inhibition at 10 µM (RPMI-8226 [2]): 60%
- inhibition at 10 µM (HT-29): 32%
- inhibition at 10 µM (SF-268 [3]): 100%
- inhibition at 10 µM (ACHN): 100%
- inhibition at 10 µM (HS 578T): 100%
- inhibition at 10 µM (OVCAR-4 [4]): 100%
- inhibition at 10 µM (MOLT-4 [5]): 75%
- inhibition at 10 µM (MALME-3M): 78%
- inhibition at 10 µM (MDA-MB-435): 0%
- inhibition at 10 µM (SR): 99%
- inhibition at 10 µM (TK-10): 100%
- inhibition at 10 µM (NCI-H522): 53%
- inhibition at 10 µM (T-47D): 100%
- inhibition at 10 µM (DU-145): 28%
- TGI (RXF 393): >100 µM
- GI50 (RXF 393; Homo sapiens): 4.23 µM
- CC50 (RXF 393; [11]): > 100 µM
- TGI (SW-620): >100 µM
- GI50 (SW-620; Homo sapiens): > 100 µM
- CC50 (SW-620; [11]): > 100 µM
- TGI (MOLT-4 [6]): >100 µM
- GI50 (MOLT-4 [6]; Homo sapiens): 2.92 µM
- CC50 (MOLT-4 [6]; [11]): > 100 µM
- TGI (MDA-MB-231/ATCC): >100 µM
- GI50 (MDA-MB-231/ATCC; Homo sapiens): 5.36 µM
- CC50 (MDA-MB-231/ATCC; [11]): > 100 µM
- TGI (RPMI-8226 [7]): >100 µM
- GI50 (RPMI-8226 [7]; Homo sapiens): 5.38 µM
- CC50 (RPMI-8226 [7]; [11]): > 100 µM
- TGI (U251 [8]): >100 µM
- GI50 (U251 [8]; Homo sapiens, U-251): 8.97 µM
- LC50 (50% lethal concentration) (U251 [8]; Homo sapiens, U-251): > 100 µM
- TGI (IGROV1): >100 µM
- GI50 (IGROV1; Homo sapiens, IGROV-1): > 100 µM
- CC50 (IGROV1; Homo sapiens, IGROV-1, read-out: LC50 (the source's name)): > 100 µM
- TGI (OVCAR-4 [9]): 4.41 µM
- GI50 (OVCAR-4 [9]; Homo sapiens): 1.82 µM
- CC50 (OVCAR-4 [9]; [11]): > 100 µM

SMILES: COc1ccccc1C1C=C(Nc2ccc(I)cc2)C(=O)N1c1ccc(I)cc1 (stereo not shown) [3i]
- inhibition at 10 µM (M14): 10%
- inhibition at 10 µM (NCI-H460): 9%
- inhibition at 10 µM (RPMI-8226 [2]): 32%
- inhibition at 10 µM (HT-29): 5%
- inhibition at 10 µM (SF-268 [3]): 24%
- inhibition at 10 µM (HS 578T): 84%
- inhibition at 10 µM (OVCAR-4 [4]): 60%
- inhibition at 10 µM (MOLT-4 [5]): 17%
- inhibition at 10 µM (MALME-3M): 45%
- inhibition at 10 µM (MDA-MB-435): 0%
- inhibition at 10 µM (SR): 23%
- inhibition at 10 µM (TK-10): 30%
- inhibition at 10 µM (NCI-H522): 37%
- inhibition at 10 µM (T-47D): 39%
- inhibition at 10 µM (DU-145): 13%
- GI (%) (HOP-62): 0%
- GI (%) (U251 [10]): 0%
- GI (%) (MDA-MB-468): 43%
- GI (%) (UO-31): 27%
- GI (%) (SF-295): 28%
- GI (%) (BT-549): 2%

— publication PMC12736255, “Reinvestigating Pyrrol-2-One-Based Compounds: From Antimicrobial Agents to Promising Antitumor Candidates” (Pharmaceuticals, 2025)
